{"source": "patent US20260108547A1", "about": "“LEVERAGING L-FUCOSE-MEDIATED SIGNALING TO INDUCE MONOCYTE-DERIVED DENDRITIC CELL POLARIZATION” (H. LEE MOFFITT CANCER CENTER AND RESEARCH INSTITUTE, INC., priority 2022, published 2026)", "key": {"SM1 tumors": {"tested_on": "SM1 tumors", "experiment": "Volumetric tumor growth, SM1 melanoma in C57BL/6 mice", "format": "in vivo, mouse", "conditions": "SM1 model", "from_the_text": "All animals were housed at the Vincent A. Stabile Research building animal facility at H. Lee Moffitt Cancer Center & Research Institute, which is fully accredited by the Association for Assessment and Accreditation of Laboratory Animal Care International (AAALAC, #434), and are managed in accordance with the Guide for the Care and Use of Laboratory Animals (“The Guide”), the Animal Welfare Regulations Title 9 Code of Federal Regulations Subchapter A, “Animal Welfare”, Parts 1-3 (AWR), the Public Health Service Policy on Humane Care and Use of Laboratory Animals (PHS Policy), and by the USF Institutional Animal Care and Use Committee's Principles and Procedures of Animal Care and Use (IACUC Principles). The experiments and protocols detailed in this study received institutional approval by the Moffitt IACUC (RIS00001625). Four-to-six-week-old female C3H/HeN and male C57BL6 mice were purchased from Charles Rivers Laboratories for the indicated experiments. Four-to-six-week-old male NSG mice from the Lau laboratory breeding colony were used for the indicated experiments. Power calculations were used to determine mouse cohort sizes to detect significant changes in tumor sizes. […] Mouse tumor volumes were measured using length, width and depth divided by 2. […]"}, "breast tumors": {"tested_on": "breast tumors", "experiment": "Syngeneic breast tumor model, tumor growth and flow cytometry of immune cells", "format": "in vivo", "from_the_text": "We observed that L-fucose reduces tumor growth in breast cancer and enriches for CD11c+ cells."}, "[1]": {"tested_on": "bone marrow-derived MCs (BMMCs)", "experiment": "BMMC / T cell ex vivo co-culture (CTV proliferation, interferon-gamma release)", "format": "cell-based", "from_the_text": "We next sought to see how the immunostimulatory capacity of these cells was altered after L-fucose treatment by culturing L-fucose modulated, either by decreased fucosylation via 2FF or increased fucosylation by L-fuc, MCs with immature T cells to asses (FIG. 22B) proliferation by loss of CTV staining and (FIG. 22C) T cell activation as evident by interferon-gamma release."}, "SW1 tumors [2]": {"tested_on": "SW1 tumors", "experiment": "Immunofluorescent (AAL) analysis of mouse tumor tissue fucosylation", "format": "in vivo", "conditions": "oral L-fuc; SW1 model", "experimental": "In general, paraffin-embedded FFPE tumor tissue sections (or the TMA slide) were melted at 70° C. for 30 min. The slides were further de-paraffinizeded using xylene and rehydrated in serial alcohol washes. The slides were pressure cooked at 15 PSI for 15 min in a 1×DAKO antigen retrieval buffer (Agilent Technologies (Santa Clara, CA)). The tumor sections were subject to two 5-min standing washes in PBS prior to blocking in 1× Carb-Free Blocking Solution (Vector Labs (Burlingame, CA)) for 2-3h. The slides were next washed twice and incubated with indicated lectin and/or antibodies.\nFor assessment of mouse tumor fucosylation, FFPE tumor sections were immunostained with FITC-conjugated AAL lectin (0.4 μg/mL, Vector Laboratories (Burlingame, CA)) and rabbit anti-Mart1+rabbit anti-S100 (melanoma marker cocktail). The slides were mounted with Vectashield+DAPI (Vector Laboratories (Burlingame, CA)). Four representative microscopy images per tumor were acquired using a Keyence BZ-X710, and images were process and analyzed using FUI (NIH) as follows: melanoma marker-positive regions were assigned as regions of interest (ROI) in which we measured Integrated density of AAL signal. Integrated densities of control tumors were assigned as 1, and Integrated AAL density values of experimental tumors were divided by control to produce relative fold changes and plotted as column charts."}, "SW1 tumors [3]": {"tested_on": "SW1 tumors", "experiment": "DC clustering by CD11c in SW1 tumors from mice treated +/- L-fucose", "conditions": "mouse, in vivo"}, "SW1 tumor cells": {"tested_on": "SW1 tumor cells", "experiment": "Co-culture of pretreated moDCs with GFP-expressing SW1 tumor cells (GFP loss, LDH release)", "format": "cell-based, mouse", "conditions": "loss of GFP fluorescence", "from_the_text": "We next sought to determine if the change in phagocytosis we observe in the bead uptake assay was accompanied with increased cytotoxic tendencies in the L-fucose-treated moDCs. To this end we co-cultured pretreated moDCs with GFP-expressing SW1 tumor cells to observe (FIG. 26C) loss of GFP fluorescence correlating with SW1 and (FIG. 26D) release of LDH as markers of cell death."}, "moDCs": {"tested_on": "moDCs", "experiment": "moDC dendrite length, phagocytosis (bead uptake) and Fitc-dextran uptake", "format": "cell-based", "from_the_text": "Our preliminary studies have begun to dissect and highlight moDC signaling changes induced by L-fuc treatment. Here, we present and discuss our novel findings on L-fuc-induced DC/moDC biology, the key mechanistic signaling changes that mediate these effects, and the important translational implications of these findings for efforts aimed at increasing/enhancing intratumoral DC function and anti-tumor immune responses.\nNext we wanted to determine if L-fucose enhances the function phenotype of moDCs. […] Having determined that L-fucose alters the signaling of moDCs leading to an immunostimulatory phenotype, we next sought to identify other components of DC biology that are affected. To this end we examined L-fucose-treated mature dendritic cells for changes in (FIG. 26A) dendrite length and (FIG. 26B) phagocytosis by neutral bead uptake which may correlate with differential anti-tumor capacity in the TME."}}}
{"smiles": "C[C@H](O)[C@@H](O)[C@@H](O)[C@H](O)C=O", "note": "[L-fucose]", "values": [{"measurement": "tumor suppression, single agent", "setting": "SM1 tumors", "result": "less tumor suppressive than anti-PD1 alone"}, {"measurement": "tumor suppression in combination with anti-PD1", "setting": "SM1 tumors; L-fuc in combination with anti-PD1", "result": "augmented durable suppression"}, {"measurement": "CD11c+ cells in breast tumors", "setting": "breast tumors; flow cytometry", "result": "enrichment of CD11c+ cells"}, {"measurement": "breast tumor growth", "setting": "breast tumors; syngeneic breast tumor model", "result": "dose-dependent tumor suppression"}, {"measurement": "immunostimulatory capacity of treated dendritic cells (DCs)", "setting": "[1]", "result": "enhanced immunostimulatory capacity"}, {"measurement": "increased tumor fucosylation", "setting": "SW1 tumors [2]", "result": "~2", "unit": "fold"}, {"measurement": "DC clustering by CD11c in SW1 tumors", "setting": "SW1 tumors [3]", "result": "increased DC clustering"}, {"measurement": "phenotype of moDCs in co-culture with SW1 tumor cells", "setting": "SW1 tumor cells", "result": "cytotoxic-like phenotype"}, {"measurement": "dendrite length of moDCs", "setting": "moDCs", "result": "increased"}, {"measurement": "uptake of exogenous Fitc-dextran bait by L-fuc-induced moDCs", "setting": "moDCs; compared with untreated DCs", "result": "significantly increased rate"}, {"measurement": "phagocytosis of moDCs", "setting": "moDCs; neutral bead uptake", "result": "increased"}]}
